The values below come from patent US9174949B2, “Hedgehog inhibitors” (SELEXAGEN THERAPEUTICS, INC., priority 2010, dated 2015).

One assay has as its system hedgehog pathway signaling. Put plainly: Modified Method A: purmorphamine stimulated alkaline phosphatase activity in C3H10T1/2 cells. It is filed as cell-based. As to conditions: Mus musculus, C3H 10T1/2, compound at 500 nM, 100 nM purmorphamine, 72 hours, read-out: Activity Ranking (percent activity compared to control alkaline phosphatase activity).
As to `CS(=O)(=O)c1ccc(C(=O)Nc2ccc(-c3cscn3)cc2)c(Cl)c1` [Example 11, 2-chloro-(4-methylsulfonyl)-N-(4-(thiazol-4-yl)phenyl)benzamide], the activity at 0.5 µM is 26 to 50%.
The same measure, in the same setting: next, `COc1ccc(C(=O)Nc2ccc(-c3csc(C)n3)cc2)cc1` [Example 3]: 0 to 25%.
The same measure, in the same setting: next, `Cc1nc(-c2ccc(NC(=O)c3ccccc3Cl)cc2)cs1` [Example 14]: 0 to 25%; `CS(=O)(=O)c1ccc(C(=O)Nc2ccc(-c3csc(CO)n3)cc2)c(Cl)c1` [Example 13, 2-chloro-N-(4-(2-(hydroxymethyl)thiazol-4-yl)phenyl)-4-(methylsulfonyl)benzamide]: 51 to 75%.
Consider `Cc1nc(-c2ccc(NC(=O)c3ccccc3S(C)(=O)=O)cc2)cs1` [Example 15], for which the activity at 0.5 µM was 76 to 100%.
Still for that read-out and setting: next, `COc1cc(C(=O)Nc2ccc(-c3csc(C)n3)cc2)cc(OC)c1OC` [Example 2]: 51 to 75%; `COc1ccc(C(=O)Nc2ccc(-c3csc(C)n3)cc2)c(C)c1` [Example 16]: 0 to 25%.
For `Cc1nc(-c2ccc(NC(=O)c3ccc(S(C)(=O)=O)cc3Cl)cc2)cs1` [Example 4, 2-chloro-4-(methylsulfonyl)-N-(4-(2-methylthiazol-4-yl)phenyl)benzamide], the activity at 0.5 µM lay within 0 to 25%.
Still for that read-out and setting: next, `O=C(Nc1ccc(-c2cscn2)cc1)c1ccccc1Cl` [Example 10, 2-chloro-N-(4-(thiazol-4-yl)phenyl)benzamide]: 26 to 50%; `COc1ccc(C(=O)Nc2ccc(-c3csc(C)n3)cc2)c(Cl)c1` [Example 8]: 0 to 25%; `CC(C)(O)c1nc(-c2ccc(NC(=O)c3ccc(S(C)(=O)=O)cc3Cl)cc2)cs1` [Example 12, 2-chloro-N-(4-(2-(2-hydroxypropan-2-yl)thiazol-4-yl)phenyl)-4-(methylsulfonyl)benzamide]: 26 to 50%.
Still for that read-out and setting: next, `Cc1nc(-c2ccc(NC(=O)c3ccc(S(C)(=O)=O)cc3Cl)cc2)co1` [Example 6]: 26 to 50%; `Cc1nc(-c2ccc(N(C)C(=O)c3ccc(S(C)(=O)=O)cc3Cl)cc2)cs1` [Example 9, 2-chloro-N-methyl-4-(methylsulfonyl)-N-(4-(2-methylthiazol-4-yl)phenyl)benzamide]: 76 to 100%.
Same read-out and setting: next, `Cc1nc(-c2ccc(NC(=O)c3ccc(S(C)(=O)=O)cc3Cl)cc2Cl)cs1` [Example 7, 2-chloro-N-(3-chloro-4-(2-methylthiazol-4-yl)phenyl)-4-(methylsulfonyl)benzamide]: 51 to 75%; `Cc1nc(-c2ccc(NC(=O)c3ccc(Cl)cc3Cl)cc2)cs1` [Example 1, 2,4-dichloro-N-(4-(2-methylthiazol-4-yl)phenyl)benzamide]: 0 to 25%.
As for `COc1ccc(C(=O)Nc2ccc(-c3csc(C)n3)cc2)c(F)c1` [Example 17], the activity at 0.5 µM lay within 0 to 25%.
Still for that read-out and setting: next, `Cc1nc(-c2ccc(NC(=O)c3ccc(C#N)cc3)cc2)cs1` [Example 18]: 26 to 50%; `COc1ccc(C(=O)Nc2ccc(-c3csc(C)n3)cc2)c(CN2CCOCC2)c1` [Example 5]: 0 to 25%.

For another assay, the system named is hedgehog pathway signaling. The experiment in a line: Method A: cell differentiation assay, sonic hedgehog stimulated alkaline phosphatase activity. It is filed as cell-based. As to conditions: Mus musculus, Shh-N 2 μg/mL, 72 hours, C3H10T1/2 or M2-10B4 cells. Here is the method:
The ability of compounds described in the current invention to inhibit hedgehog pathway signaling was determined from the following cell differentiation assays (Method A, or Modified Method A as described below) in which cellular alkaline phosphatase activity is assessed in the presence of control vehicle or test compound, as previously described in the literature (Wu et al., Chemistry & Biology, 11: 1229-1238, 2004; Couve-Privat, et al., Cancer Research, 64; 3559-3565, 2004; Dwyer et al., J. Biological Chemistry, 282: 8959-8968, 2007) with modifications as described below.
Method A: Mouse C3H10T1/2 (CCL-226™) or M2-10B4 (CRL-1972™) cells obtained from the American Type Tissue Culture Collection (Maryland, USA) were cultured to 60-80% confluence in Dulbecco's modified Eagle's Medium (C3H10T1/2 cells) containing heat-inactivated 10% fetal bovine serum or RPMI-1640 media (M2-10B4 cells) containing heat-inactivated 10% fetal bovine serum. Cell cultures were maintained in 10 U/mL penicillin, 100 μg/mL streptomycin and 2 mM glutamine. Cells were then trypsinized, counted and plated into 96-well microtiter plates prior to incubation overnight at 37° C. in 5% CO2. […] Similarly, an IC90 was determined. […]
In the case of `Cc1nc(-c2ccc(NC(=O)c3ccc(S(C)(=O)=O)cc3Cl)cc2)cs1` [Example 4, 2-chloro-4-(methylsulfonyl)-N-(4-(2-methylthiazol-4-yl)phenyl)benzamide], the IC90 (usually the concentration needed for an effect of 90%) was found to be 300 nM.

Staying with this assay, now noted: Mus musculus, Shh-N 2 μg/mL, 72 hours, C3H10T1/2 or M2-10B4 cells, read-out: IC50 (50% inhibition of sonic hedgehog stimulated alkaline phosphatase activity).
For the compound `Cc1nc(-c2ccc(NC(=O)c3ccc(S(C)(=O)=O)cc3Cl)cc2)cs1` [Example 4, 2-chloro-4-(methylsulfonyl)-N-(4-(2-methylthiazol-4-yl)phenyl)benzamide], the IC50 (commonly the concentration that gives 50% inhibition) was 63 nM.
